In patent US11312715B2, “Fused ring derivative as A2A receptor inhibitor” (CSTONE PHARMACEUTICALS (SUZHOU) CO., LTD., priority 2017, dated 2022):
Structures can show the parent of a compound that is named as a salt. Where two headings read alike, the source gives them in different places.

Assays:
[1] = tested on: mouse colon cancer CT26 cells; experiment: In vivo pharmacodynamic test, CT26 subcutaneous tumor model, alone or combined with CS1003; design: species or system BALB/C mice; details: for tumor inhibition rate: day 20
Description: Experimental materials: BALB/C mice (female); mouse colon cancer CT26 cells (Typical Culture Preservation Commission cell bank, Chinese Academy of Sciences) were cultured in vitro in monolayer with RPMI-1640 medium containing 10% fetal bovine serum in a 37° C., 5% CO2 incubator. Trypsin-EDTA was used for routine digestion and passage. When the cells were in exponential growth phase and the saturation was 80%-90%, the cells were collected and counted.
Compound preparation: Embodiment 19 was weighted and added into the menstruum (10% PEG400+90% (10% Cremophor aqueous solution)) to prepare samples of 2.5 mg/mL, 5 mg/mL and 10 mg/mL respectively. 72 μL CS1003 (PD-1 antibody) solution (25 mg/mL) was taken and 1.728 mL Dulbecco's phosphate buffer (DPBS) was added to prepare a 1 mg/mL solution, then 16.2 mL DPBS was added to prepare a 0.1 mg/mL clear solution.
Experimental operation: the cells were resuspended in Dulbecco's phosphate buffer at a density of 3×10^6 cells/mL. 0.1 mL DPBS (containing 3×10^5 CT26 cells) was subcutaneously inoculated on the right back of each mouse. On the day of inoculation, the mice were randomly divided into groups with 9 mice each group according to the weight of the mice, then administration was started and continued for 20 days. During the whole experiment, the animals were weighed and the animal's health was monitored every day, in case of any special situation, the person in charge of the relevant project would be informed in time and the corresponding records would be made. Tumor diameter was measured twice a week with a vernier caliper. The calculation formula of the tumor volume was: V=0.5×a×b^2, wherein a and b represent the long and short diameters of the tumor respectively.
The antitumor effect of the compounds was evaluated by GI (%) or relative tumor proliferation rate T/C (%). Relative tumor proliferation rate T/C (%)=Vt/VC×100% (Vt: average tumor volume of treatment group; Vc: average tumor volume of negative control group). Vt and VC were the data on the same day. GI (%), tumor inhibition rate. GI (%)=1−Vt/VC×100%.
Statistical analysis was conducted using SPSS software based on the relative tumor volume and tumor weight at the end of the experiment. […] P<0.05 was considered as significant difference.

[2] = PK test of in vivo efficacy: plasma and tumor tissue drug concentration on day 20 of the CT26 study; design: species or system BALB/C mice; details: mouse; for concentration at 1 h / concentration at 4 h / Kp at 4 h / Kp at 1 h: oral; for concentration at 1 h / Kp at 1 h: time point 1 h; for concentration at 1 h / concentration at 4 h: tumor tissue; for concentration at 4 h / Kp at 4 h: time point 4 h; for AUC(0-t) / Cmax / Tmax / half-life: plasma, po, day 20; for half-life: read-out: T½ (converted); for Kp at 4 h / Kp at 1 h: tumor tissue / plasma, read-out: T/P* Ratio (tumor tissue / plasma drug concentration)
Description: The experiment was conducted on the basis of experimental example 3, on the 20th day after administration, blood samples and tissues were collected from each group at different time points (0 h, 0.25 h, 0.5 h, 1 h, 2 h, 4 h, 8 h and 24 h) after administration.

[3] = BALB/C, 50 mg/kg, Group 7, 50 mpk twice a day alone
[4] = BALB/C, 100 mg/kg, Group 3, 100 mpk alone
[5] = BALB/C, 25 mg/kg, Group 4: 25 mg/kg once a day PO + CS1003 1 mg/kg
[6] = BALB/C, 50 mg/kg, Group 5: 50 mg/kg once a day PO + CS1003 1 mg/kg
[7] = BALB/C, 50 mg/kg, Group 7: 50 mg/kg twice a day PO alone
[8] = BALB/C, 50 mg/kg, Group 8: 50 mg/kg twice a day PO + CS1003 1 mg/kg
[9] = BALB/C, 100 mg/kg, Group 3: 100 mg/kg once a day PO alone
[10] = BALB/C, 100 mg/kg, Group 6: 100 mg/kg once a day PO + CS1003 1 mg/kg
[11] = BALB/c, 50 mpk, Group 5, 50 mpk once a day + CS1003
[12] = BALB/c, 100 mpk, Group 3, 100 mpk alone
[13] = BALB/c, 100 mpk, Group 6, 100 mpk + CS1003

concentration at 1 h [2, 3]: 3.69 µM | concentration at 4 h [2, 3]: 0.901 µM | concentration at 1 h [2, 4]: 17.5 µM | concentration at 4 h [2, 4]: 10.6 µM | AUC(0-t) [2, 5]: 23.5 µM·h | Cmax [2, 5]: 32.2 µM | Tmax [2, 5]: 30 min | half-life [2, 5]: 65.4 min | AUC(0-t) [2, 6]: 70.6 µM·h | Cmax [2, 6]: 57.2 µM | Tmax [2, 6]: 15 min | half-life [2, 6]: 63 min | AUC(0-t) [2, 7]: 42 µM·h | Cmax [2, 7]: 30.1 µM | Tmax [2, 7]: 30 min | AUC(0-t) [2, 8]: 77.9 µM·h | Cmax [2, 8]: 47.1 µM | Tmax [2, 8]: 30 min | half-life [2, 8]: 95.4 min | AUC(0-t) [2, 9]: 145 µM·h | Cmax [2, 9]: 114 µM | Tmax [2, 9]: 15 min | half-life [2, 9]: 48.6 min | AUC(0-t) [2, 10]: 125 µM·h | Cmax [2, 10]: 132 µM | Tmax [2, 10]: 15 min | half-life [2, 10]: 39.3 min | Kp at 4 h [2, 3]: 9.8 | Kp at 4 h ([2]; BALB/c, 25 mpk, Group 4, 25 mpk + CS1003): 0.9 | Kp at 1 h [2, 11]: 0.4 | Kp at 4 h [2, 11]: 1.8 | Kp at 1 h ([2]; BALB/c, 50 mpk, Group 7, 50 mpk twice a day alone): 0.7 | Kp at 4 h ([2]; BALB/c, 50 mpk, Group 8, 50 mpk twice a day + CS1003): 36 | Kp at 1 h [2, 12]: 0.6 | Kp at 4 h [2, 12]: 0.9 | Kp at 1 h [2, 13]: 0.5 | Kp at 4 h [2, 13]: 4.2
SMILES: Nc1nc(-c2ccc(F)cc2)c(-c2ccc3ncnn3c2)c2nccnc12 [Embodiment 6 hydrochloride]
tumor inhibition rate ([1]; 25 mg/kg once a day combined with 1 mg/kg CS1003, p<0.001): 63.16% | tumor volume ([1]; 25 mg/kg once a day intragastric combined with 1 mg/kg CS1003, end of experiment (day 20)): 312.06+80.17 mm^3 | tumor inhibition rate ([1]; 50 mg/kg once a day combined with 1 mg/kg CS1003, p<0.001): 70.90% | tumor volume ([1]; 50 mg/kg once a day intragastric combined with 1 mg/kg CS1003, end of experiment (day 20)): 246.48+62.57 mm^3 | tumor inhibition rate ([1]; 50 mg/kg twice a day in combination with CS1003, P<0.001): 83.22% | average tumor volume ([1]; 50 mg/kg twice a day intragastric in combination with CS1003, end of experiment (day 20)): 142.17+40.30 mm^3 | tumor inhibition rate ([1]; 100 mg/kg once a day combined with 1 mg/kg CS1003, p<0.001): 72.48% | tumor volume ([1]; 100 mg/kg once a day intragastric combined with 1 mg/kg CS1003, end of experiment (day 20)): 233.10+59.55 mm^3
